The record followed here is patent US20110053897A1 (IRM LLC, priority 2009, published 2011).

SMILES strings stand for the structures.

The target of one experiment is T1, Syk kinase (Homo sapiens, UniProt P43405).
T1 construct: purchased
Nature of the experiment: Syk kinase inhibition, Caliper LabChip off-chip mobility-shift kinase assay. Type of experiment: biochemical. To be noted: Caliper LabChip assay; read-out: Syk Enzyme IC50. Summed up: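 Purified Syk pre-incubated 15 min with compound in 100 mM HEPES pH 7.5, 1 mM DTT, 10 mM MgCl2 or MnCl2, 0.002% Brij-35, then 1.5 μM fluorescein peptide and ATP at apparent KM added; 1–1.5 h at room temperature, 4% DMSO, EDTA stop. Microfluidic mobility-shift product/substrate conversion gave % inhibition; IC50 from 12-point series (10–0.00003 μM) by 4-parameter fit.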
The IC50 is the concentration at which inhibition is half-maximal. As for `CC(C)(C)Nc1nc(Nc2cc(CN3CC(O)C3)c(F)cn2)cc2ccn(CCO)c(=O)c12` [compound 611], the IC50 was determined as 251 nM.

Turning to `CC(C)(C)Nc1nc(Nc2cc(C3(C(N)=O)CC3)ccn2)cc2ccn(CCO)c(=O)c12` [compound 859], the half-maximal inhibitory concentration (IC50) turned out to be 170 nM.

For `CCn1ccc2cc(Nc3cnccn3)nc(N[C@H](CO)C(C)(C)C)c2c1=O` [compound 807], the half-inhibitory concentration (IC50) was found to be 216 nM.

As for `O=c1c2c(N[C@H]3CC[C@@H](O)CC3)nc(Nc3cnccn3)cc2ccn1C1COC1` [compound 1009], the IC50 was determined as 19 nM.

For `O=c1[nH]ccc2cc(Nc3cnccn3)nc(N[C@H]3CC[C@@H](O)CC3)c12` [compound 981], the IC50 turned out to be 15 nM.

For `Nc1ncc(-c2cc3ccn(CC4(CO)COC4)c(=O)c3c(NC3CCCC3)n2)cn1` [compound 761], the half-maximal inhibitory concentration (IC50) is 66 nM.

Regarding `NC(=O)Cn1ccc2cc(Nc3cnccn3)nc(N[C@H]3C[C@@H](CO)C3)c2c1=O` [compound 747], the concentration for half-maximal inhibition (IC50) is 17 nM.

Turning to `CC(C)(C)Nc1nc(Nc2cc(CCCCO)ncn2)cc2ccn(CCO)c(=O)c12` [compound 629], the IC50 worked out at 62 nM.

For `CC(C)n1ccc2cc(Nc3c[n+]([O-])ccn3)nc(N[C@H]3CC[C@@H](O)CC3)c2c1=O` [compound 1016], the half-inhibitory concentration (IC50) turned out to be 105 nM.

Turning to `CC(C)(C)Nc1nc(Nc2cnccn2)cc2ccn(Cc3cccnc3)c(=O)c12` [compound 1020], the IC50 came to 164 nM.

Consider `CC(C)(C)Nc1nc(Nc2cnccn2)cc2ccn(CCC(N)=O)c(=O)c12` [compound 661], for which the IC50 was 10 nM.

In the case of `CCn1ccc2cc(Nc3cnccn3)nc(NC3(CO)CCC3)c2c1=O` [compound 897], the half-maximal inhibitory concentration (IC50) was determined as 5 nM.

Regarding `CC(C)(C)Nc1nc(Nc2cc(Oc3cn[nH]c3)ncn2)cc2ccn(C[C@H](O)CO)c(=O)c12` [compound 890], the 50% inhibitory concentration (IC50) was 21 nM.

As for `COc1ncc(-c2cc(Nc3cc4ccn(CCO)c(=O)c4c(NC(C)(C)C)n3)ncn2)cn1` [compound 637], the concentration for half-maximal inhibition (IC50) turned out to be 60 nM.

As for `CC(C)(C)Nc1nc(Nc2cc(C3=CCCCC3)ncn2)cc2ccn(CCO)c(=O)c12` [compound 623], the IC50 was found to be 612 nM.

Consider `CCn1ccc2cc(Nc3cnccn3)nc(N[C@@H]3CC[C@@H](CO)C3)c2c1=O` [compound 791], for which the half-maximal inhibitory concentration (IC50) was 58 nM.

As to `O=c1c2c(N[C@H]3CC[C@@H](O)CC3)nc(Nc3cnccn3)cc2ccn1CC(F)F` [compound 1022], the IC50 turned out to be 11 nM.

Regarding `C/C(=N\OCCN(C)C)c1ccnc(Nc2cc3ccn(CCO)c(=O)c3c(NC(C)(C)C)n2)c1` [compound 686], the IC50 was determined as 246 nM.

For `CC(C)(C)Nc1nc(Nc2cc(C(F)(F)CO)ccn2)cc2ccn(CCO)c(=O)c12` [compound 871], the half-maximal inhibitory concentration (IC50) was less than 1.27 nM.

In the case of `CC(C)(C)Nc1nc(-c2cnc(N)nc2)cc2ccn(C(C)(C)C(N)=O)c(=O)c12` [compound 673], the 50% inhibitory concentration (IC50) came to 57 nM.

The experiment is the same for the next values; noted with them: read-out: Syk Enzyme IC50.
As for `COc1cncc(-c2cc3cc[nH]c(=O)c3c(Nc3ccc(C4CCN(CC5CC5)CC4)c(C)c3)n2)n1` [compound 81], the IC50 turned out to be 4 nM.

Consider `COc1ncc(-c2cc3cc[nH]c(=O)c3c(Nc3ccc(CCN4CCNC(=O)C4)cc3)n2)cn1` [compound 151], for which the IC50 is 201 nM.

For `COc1cncc(-c2cc3cc[nH]c(=O)c3c(Nc3ccc(CCN4CCNCC4)cc3)n2)n1` [compound 54], the IC50 is 64 nM.

For `CCn1ccc2cc(Nc3cc(C)ccn3)nc(N[C@H]3CC[C@@H](O)CC3)c2c1=O` [compound 362], the IC50 is 18 nM.

On to `Cc1ccnc(Nc2cc3ccn(C)c(=O)c3c(NCCCO)n2)c1` [compound 503], for which the concentration for half-maximal inhibition (IC50) was determined as 84 nM.

As for `Nc1nc(Nc2cnccn2)cc2ccn(Cc3ccccc3)c(=O)c12` [compound 478], the IC50 is 1630 nM.

Consider `CCN1CCN(CCc2ccc(Nc3nc(-c4cnn(CC(C)C)c4)cc4cc[nH]c(=O)c34)cc2)CC1` [compound 444], for which the IC50 was found to be 122 nM.

Regarding `CC(C)Nc1nc(Nc2cc(-c3cnn(C)c3)ccn2)cc2cc[nH]c(=O)c12` [compound 595], the IC50 is 87.9 nM.

`COC(=O)CCN1CCC(c2ccc(Nc3nc(-c4cncc(OC)n4)cc4cc[nH]c(=O)c34)cc2C)CC1` [compound 160]: the IC50 is 81 nM.

As to `CCn1ccc2cc(Nc3cc(C)ccn3)nc(N[C@@H]3CCC[C@@H]3O)c2c1=O` [compound 418], the IC50 was determined as 182 nM.

Consider `CN1CCN([C@H]2CC[C@H](c3ccc(Nc4nc(-c5cncnc5)cc5cc[nH]c(=O)c45)cc3)CC2)CC1` [compound 103], for which the 50% inhibitory concentration (IC50) turned out to be 59 nM.

`COCC(C)(C)C(=O)N1CCC(c2ccc(Nc3nc(-c4cncc(OC)n4)cc4cc[nH]c(=O)c34)cc2C)CC1` [compound 8]: the half-maximal inhibitory concentration (IC50) amounted to 253 nM.

`CO/N=C(\C)c1cc2cc[nH]c(=O)c2c(Nc2ccc(N3CCO[C@H](C)C3)c(C)c2)n1` [compound 234]: the concentration for half-maximal inhibition (IC50) was found to be 1310 nM.

Turning to `CCCc1cc2cc[nH]c(=O)c2c(Nc2ccc(N3CCO[C@H](C)C3)c(C)c2)n1` [compound 225], the half-inhibitory concentration (IC50) was found to be 2300 nM.

As to `O=c1c2c(NCC(F)(F)F)nc(Nc3cc(Cl)ccn3)cc2ccn1CCO` [compound 593], the IC50 came to 271 nM.

As for `COc1cncc(-c2cc3cc[nH]c(=O)c3c(Nc3ccc(CCN4CC5CNCC5C4)cc3)n2)n1` (stereo not drawn) [compound 433], the IC50 is 51 nM.

Take `O=c1[nH]ccc2cc(Nc3ccccn3)nc(NC3CC3)c12` [compound 524]: the IC50 was 199 nM.

In the case of `COc1cncc(-c2cc3cc[nH]c(=O)c3c(Nc3ccc(C4CCN(CCF)CC4)c(C)c3)n2)n1` [compound 79], the IC50 is 27 nM.

As for `C[C@@H](CO)Nc1nc(Nc2cnccn2)cc2ccn(C)c(=O)c12` [compound 327], the IC50 turned out to be 120 nM.

In the case of `C[C@@H]1CN(c2ccc(Nc3nc(-c4cncnc4)cc4cc[nH]c(=O)c34)cn2)C[C@H](C)O1` [compound 18], the half-inhibitory concentration (IC50) stood at 245 nM.

In the case of `COc1cncc(-c2cc3cc[nH]c(=O)c3c(Nc3ccc4c(c3)C3CNCC4C3)n2)n1` (stereo not drawn) [compound 96], the IC50 was 1660 nM.

For the molecule `Cc1ccnc(Nc2cc3ccn(C)c(=O)c3c(Nc3ccc(C4CCNCC4)cc3)n2)c1` [compound 308], the half-inhibitory concentration (IC50) is 7 nM.

For `Cc1ccnc(Nc2cc3cc[nH]c(=O)c3c(NCC(C)C)n2)c1` [compound 282], the IC50 was 500 nM.

Take `[2H]C([2H])([2H])n1ccc2cc(Nc3cc(Cl)ccn3)nc(NC3CC3)c2c1=O` [compound 519]: the IC50 is 302 nM.

As to `Cc1ccnc(Nc2cc3cc[nH]c(=O)c3c(NC3CNC3)n2)c1` [compound 300], the half-inhibitory concentration (IC50) stood at 1540 nM.

As to `CCn1ccc2cc(Nc3cnccn3)nc(N[C@H]3CC[C@@H](O)C3)c2c1=O` [compound 425], the IC50 was 316 nM.

In the case of `Cc1ccnc(Nc2cc3ccn(C)c(=O)c3c(NC3CC3)n2)c1` [compound 534], the IC50 came to 129 nM.

As to `CCOCCOc1cccc(Nc2nc(Nc3cc(C)ccn3)cc3ccn(C)c(=O)c23)c1` [compound 335], the half-maximal inhibitory concentration (IC50) amounted to 1610 nM.

On to `Cn1cc(-c2cc3cc[nH]c(=O)c3c(Nc3ccc([C@H]4CC[C@H](N5CCOCC5)CC4)cc3)n2)cn1` [compound 99], for which the half-maximal inhibitory concentration (IC50) was found to be 168 nM.

Turning to `COc1ccc(Nc2nc(Nc3cc(C)ccn3)cc3cc[nH]c(=O)c23)cc1OC` [compound 371], the 50% inhibitory concentration (IC50) came out at 233 nM.

Regarding `CCN1CCN(CCCc2ccc(Nc3nc(-c4cncc(OC)n4)cc4cc[nH]c(=O)c34)cc2)CC1` [compound 41], the concentration for half-maximal inhibition (IC50) amounted to 42 nM.
